Each block holds one molecule with its values, some of them ahead of it.
Test system: HSSY-II complex spheroid growth, percent test/control
Assay: Anticancer human tumor HSSY-II cell line growth inhibition [Asc];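 further: spheroids exposed to drug for 7 days before reading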
Settings: for IC50: curve of first compound; for viability, T/C: stronger effect = lower value
In short: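 Concentration series start at each agent's clinical Cmax, or at 10 microM when none is established, and drop in half-log steps; agents are applied alone or together to complex spheroids built with HUVEC and hMSC.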

IC50 (second compound 0.03 µM): > 3 µM | IC50 (second compound 0.0949 µM): 0.612 µM | IC50 (second compound 0.3 µM): < 0.00949 µM | IC50 (second compound 0.949 µM): < 0.00949 µM | IC50 (second compound 3 µM): < 0.00949 µM
SMILES: Cc1nc(N2CCC3(CC2)COC(C)C3N)c(CO)nc1Sc1ccnc(N)c1Cl (centres undefined) + CCN1C(C(=O)NC23CCC(C(=O)O)(CC2)CC3)C(c2cccc(Cl)c2F)C2(C(=O)Nc3cc(Cl)ccc32)C12CCCCC2
viability, T/C (second compound 0.03 µM, first compound 0.00949 µM): 105% | viability, T/C (second compound 0.03 µM, first compound 0.03 µM): 97.6% | viability, T/C (second compound 0.03 µM, first compound 0.0949 µM): 100% | viability, T/C (second compound 0.03 µM, first compound 0.3 µM): 93.2% | viability, T/C (second compound 0.03 µM, first compound 0.949 µM): 88.8% | viability, T/C (second compound 0.03 µM, first compound 3 µM): 59.8% | viability, T/C (second compound 0.0949 µM, first compound 0.00949 µM): 64% | viability, T/C (second compound 0.0949 µM, first compound 0.03 µM): 59.3% | viability, T/C (second compound 0.0949 µM, first compound 0.0949 µM): 57.6% | viability, T/C (second compound 0.0949 µM, first compound 0.3 µM): 58.7% | viability, T/C (second compound 0.0949 µM, first compound 0.949 µM): 44.3% | viability, T/C (second compound 0.0949 µM, first compound 3 µM): 36.6% | viability, T/C (second compound 0.3 µM, first compound 0.00949 µM): 23.8% | viability, T/C (second compound 0.3 µM, first compound 0.03 µM): 22.2% | viability, T/C (second compound 0.3 µM, first compound 0.0949 µM): 23.4% | viability, T/C (second compound 0.3 µM, first compound 0.3 µM): 23.2% | viability, T/C (second compound 0.3 µM, first compound 0.949 µM): 14.6% | viability, T/C (second compound 0.3 µM, first compound 3 µM): 18.5% | viability, T/C (second compound 0.949 µM, first compound 0.00949 µM): 7.31% | viability, T/C (second compound 0.949 µM, first compound 0.03 µM): 6.01% | viability, T/C (second compound 0.949 µM, first compound 0.0949 µM): 4.66% | viability, T/C (second compound 0.949 µM, first compound 0.3 µM): 3.37% | viability, T/C (second compound 0.949 µM, first compound 0.949 µM): 2.01% | viability, T/C (second compound 0.949 µM, first compound 3 µM): 2.02% | viability, T/C (second compound 3 µM, first compound 0.00949 µM): 1.65% | viability, T/C (second compound 3 µM, first compound 0.03 µM): 1.25% | viability, T/C (second compound 3 µM, first compound 0.0949 µM): 0.81% | viability, T/C (second compound 3 µM, first compound 0.3 µM): 0.41% | viability, T/C (second compound 3 µM, first compound 0.949 µM): 0.35% | viability, T/C (second compound 3 µM, first compound 3 µM): 0.42%

IC50 (second compound 0.00316 µM): > 10 µM | IC50 (second compound 0.01 µM): 6.97 µM | IC50 (second compound 0.0316 µM): 8.98 µM | IC50 (second compound 0.1 µM): > 10 µM | IC50 (second compound 0.316 µM): 9.6 µM | IC50 (second compound 1 µM): 7.49 µM
SMILES: C#Cc1c(F)ccc2cc(O)cc(-c3ncc4c(N5CC6CCC(C5)N6)nc(OCC56CCCN5CC(F)C6)nc4c3F)c12 (centres undefined) + CNC(C)C(=O)NC1CN(S(=O)(=O)c2cccc(S(=O)(=O)N3CCC4CCC(C(=O)NC(c5ccccc5)c5ccccc5)N4C(=O)C(NC(=O)C(C)NC)C3)c2)CCC2CCC(C(=O)NC(c3ccccc3)c3ccccc3)N2C1=O
viability, T/C (second compound 0.00316 µM, first compound 0.0316 µM): 97.9% | viability, T/C (second compound 0.00316 µM, first compound 0.1 µM): 92.2% | viability, T/C (second compound 0.00316 µM, first compound 0.316 µM): 92.2% | viability, T/C (second compound 0.00316 µM, first compound 1 µM): 109% | viability, T/C (second compound 0.00316 µM, first compound 3.16 µM): 96.7% | viability, T/C (second compound 0.00316 µM, first compound 10 µM): 62.2% | viability, T/C (second compound 0.01 µM, first compound 0.0316 µM): 100% | viability, T/C (second compound 0.01 µM, first compound 0.1 µM): 88% | viability, T/C (second compound 0.01 µM, first compound 0.316 µM): 94% | viability, T/C (second compound 0.01 µM, first compound 1 µM): 98.1% | viability, T/C (second compound 0.01 µM, first compound 3.16 µM): 88.8% | viability, T/C (second compound 0.01 µM, first compound 10 µM): 32% | viability, T/C (second compound 0.0316 µM, first compound 0.0316 µM): 100% | viability, T/C (second compound 0.0316 µM, first compound 0.1 µM): 96.3% | viability, T/C (second compound 0.0316 µM, first compound 0.316 µM): 95.2% | viability, T/C (second compound 0.0316 µM, first compound 1 µM): 94.3% | viability, T/C (second compound 0.0316 µM, first compound 3.16 µM): 94.2% | viability, T/C (second compound 0.0316 µM, first compound 10 µM): 45.4% | viability, T/C (second compound 0.1 µM, first compound 0.0316 µM): 100% | viability, T/C (second compound 0.1 µM, first compound 0.1 µM): 91.7% | viability, T/C (second compound 0.1 µM, first compound 0.316 µM): 93.6% | viability, T/C (second compound 0.1 µM, first compound 1 µM): 88.5% | viability, T/C (second compound 0.1 µM, first compound 3.16 µM): 85.1% | viability, T/C (second compound 0.1 µM, first compound 10 µM): 63% | viability, T/C (second compound 0.316 µM, first compound 0.0316 µM): 102% | viability, T/C (second compound 0.316 µM, first compound 0.1 µM): 93.9% | viability, T/C (second compound 0.316 µM, first compound 0.316 µM): 88.5% | viability, T/C (second compound 0.316 µM, first compound 1 µM): 91.2% | viability, T/C (second compound 0.316 µM, first compound 3.16 µM): 84.9% | viability, T/C (second compound 0.316 µM, first compound 10 µM): 48.1% | viability, T/C (second compound 1 µM, first compound 0.0316 µM): 91.9% | viability, T/C (second compound 1 µM, first compound 0.1 µM): 90.8% | viability, T/C (second compound 1 µM, first compound 0.316 µM): 96.2% | viability, T/C (second compound 1 µM, first compound 1 µM): 86.1% | viability, T/C (second compound 1 µM, first compound 3.16 µM): 86.6% | viability, T/C (second compound 1 µM, first compound 10 µM): 37.5%

IC50 (second compound 0.00316 µM): > 3 µM | IC50 (second compound 0.01 µM): > 3 µM | IC50 (second compound 0.0316 µM): > 3 µM | IC50 (second compound 0.1 µM): > 3 µM | IC50 (second compound 0.316 µM): > 3 µM | IC50 (second compound 1 µM): > 3 µM
SMILES: Cc1nc(N2CCC3(CC2)COC(C)C3N)c(CO)nc1Sc1ccnc(N)c1Cl (centres undefined) + CNC(C)C(=O)NC1CN(S(=O)(=O)c2cccc(S(=O)(=O)N3CCC4CCC(C(=O)NC(c5ccccc5)c5ccccc5)N4C(=O)C(NC(=O)C(C)NC)C3)c2)CCC2CCC(C(=O)NC(c3ccccc3)c3ccccc3)N2C1=O
viability, T/C (second compound 0.00316 µM, first compound 0.00949 µM): 104% | viability, T/C (second compound 0.00316 µM, first compound 0.03 µM): 102% | viability, T/C (second compound 0.00316 µM, first compound 0.0949 µM): 90.9% | viability, T/C (second compound 0.00316 µM, first compound 0.3 µM): 92.6% | viability, T/C (second compound 0.00316 µM, first compound 0.949 µM): 90.7% | viability, T/C (second compound 0.00316 µM, first compound 3 µM): 69.1% | viability, T/C (second compound 0.01 µM, first compound 0.00949 µM): 105% | viability, T/C (second compound 0.01 µM, first compound 0.03 µM): 97.2% | viability, T/C (second compound 0.01 µM, first compound 0.0949 µM): 90.8% | viability, T/C (second compound 0.01 µM, first compound 0.3 µM): 93.7% | viability, T/C (second compound 0.01 µM, first compound 0.949 µM): 88.1% | viability, T/C (second compound 0.01 µM, first compound 3 µM): 66.9% | viability, T/C (second compound 0.0316 µM, first compound 0.00949 µM): 101% | viability, T/C (second compound 0.0316 µM, first compound 0.03 µM): 91.2% | viability, T/C (second compound 0.0316 µM, first compound 0.0949 µM): 95.4% | viability, T/C (second compound 0.0316 µM, first compound 0.3 µM): 85.8% | viability, T/C (second compound 0.0316 µM, first compound 0.949 µM): 90.7% | viability, T/C (second compound 0.0316 µM, first compound 3 µM): 74.9% | viability, T/C (second compound 0.1 µM, first compound 0.00949 µM): 96.9% | viability, T/C (second compound 0.1 µM, first compound 0.03 µM): 96.4% | viability, T/C (second compound 0.1 µM, first compound 0.0949 µM): 97.5% | viability, T/C (second compound 0.1 µM, first compound 0.3 µM): 95.6% | viability, T/C (second compound 0.1 µM, first compound 0.949 µM): 84.3% | viability, T/C (second compound 0.1 µM, first compound 3 µM): 70.8% | viability, T/C (second compound 0.316 µM, first compound 0.00949 µM): 93.5% | viability, T/C (second compound 0.316 µM, first compound 0.03 µM): 94.2% | viability, T/C (second compound 0.316 µM, first compound 0.0949 µM): 90.2% | viability, T/C (second compound 0.316 µM, first compound 0.3 µM): 85.4% | viability, T/C (second compound 0.316 µM, first compound 0.949 µM): 78.7% | viability, T/C (second compound 0.316 µM, first compound 3 µM): 72.5% | viability, T/C (second compound 1 µM, first compound 0.00949 µM): 97.5% | viability, T/C (second compound 1 µM, first compound 0.03 µM): 92.8% | viability, T/C (second compound 1 µM, first compound 0.0949 µM): 92.7% | viability, T/C (second compound 1 µM, first compound 0.3 µM): 84.7% | viability, T/C (second compound 1 µM, first compound 0.949 µM): 87.6% | viability, T/C (second compound 1 µM, first compound 3 µM): 76%

Reference: PubChem BioAssay AID1963444 (Molecular Pharmacology Branch, DTP, NCI, 2024)
